Assays:
[1] = biological target: 72 kDa type IV collagenase (Homo sapiens, UniProt P08253); test: Inhibition of gelatinase A (unknown origin) after 30 mins using succinylated gelatin as substrate
Aminopeptidase N = biological target: T1, Aminopeptidase N (Sus scrofa, UniProt P15145); test: Inhibition of porcine microsomal aminopeptidase N preincubated for 30 mins using L-Leu-p-nitroanilide as substrate by UV-VIS spectrophotometer
T1 sequence (P15145 whole entry): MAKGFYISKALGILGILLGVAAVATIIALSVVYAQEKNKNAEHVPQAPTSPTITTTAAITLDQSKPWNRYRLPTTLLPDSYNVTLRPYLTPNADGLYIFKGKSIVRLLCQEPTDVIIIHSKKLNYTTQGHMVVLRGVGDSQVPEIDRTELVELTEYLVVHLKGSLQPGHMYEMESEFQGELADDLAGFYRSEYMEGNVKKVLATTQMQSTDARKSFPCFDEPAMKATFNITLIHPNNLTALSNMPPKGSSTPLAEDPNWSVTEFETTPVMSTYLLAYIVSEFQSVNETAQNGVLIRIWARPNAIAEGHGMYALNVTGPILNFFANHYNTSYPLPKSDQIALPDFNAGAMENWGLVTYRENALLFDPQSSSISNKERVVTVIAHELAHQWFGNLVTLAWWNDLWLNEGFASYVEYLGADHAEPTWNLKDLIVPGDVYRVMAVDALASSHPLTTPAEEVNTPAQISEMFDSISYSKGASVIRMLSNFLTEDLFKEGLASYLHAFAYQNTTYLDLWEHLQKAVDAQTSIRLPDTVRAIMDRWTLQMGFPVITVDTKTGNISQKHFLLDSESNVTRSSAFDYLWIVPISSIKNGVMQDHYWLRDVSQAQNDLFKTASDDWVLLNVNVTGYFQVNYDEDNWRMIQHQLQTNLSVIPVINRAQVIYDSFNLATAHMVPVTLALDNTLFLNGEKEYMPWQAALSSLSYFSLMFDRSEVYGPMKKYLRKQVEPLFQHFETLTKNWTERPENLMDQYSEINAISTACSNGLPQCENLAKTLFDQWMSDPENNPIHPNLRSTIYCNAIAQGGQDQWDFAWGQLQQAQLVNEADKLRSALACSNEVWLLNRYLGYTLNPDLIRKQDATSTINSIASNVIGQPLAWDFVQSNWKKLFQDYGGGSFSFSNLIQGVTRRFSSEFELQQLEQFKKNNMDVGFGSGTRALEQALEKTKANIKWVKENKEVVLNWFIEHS

C8166 = test: Cytotoxicity against human C8166 cells after 72 hrs by MTT assay; assay type: functional; conditions: C8166, 72 h
[2] = tested on: Human immunodeficiency virus 1; test: Antiviral activity against HIV1 3B infected in human C8166 cells assessed as cytopathic effect by counting the number of syncytia by microscopy; assay type: functional, organism-based; conditions: Human immunodeficiency virus 1, 3B
[3] = Therapeutic index, ratio of CC50 for human C8166 cells to EC50 for HIV1 3B infected in human C8166 cells; assay type: cell-based; conditions: read-out: Ratio CC50/EC50
[4] = tested on: Human immunodeficiency virus 1; test: Antiviral activity against HIV1 3B infected in human C8166 cells assessed as reduction in p24 antigen level incubated for 2 hrs followed by cell plating for 72 hrs by ELISA method; assay type: functional, organism-based; conditions: Human immunodeficiency virus 1, 3B
[5] = tested on: Human immunodeficiency virus 1; test: Antiviral activity against HIV1 A17 infected in human C8166 cells assessed as reduction in p24 antigen level incubated for 4 hrs followed by cell plating for 72 hrs by ELISA method; assay type: functional, organism-based; conditions: Human immunodeficiency virus 1, A17, C8166
[6] = tested on: Human immunodeficiency virus 1; test: Antiviral activity against HIV1 74V infected in human C8166 cells assessed as reduction in p24 antigen level incubated for 4 hrs followed by cell plating for 72 hrs by ELISA method; assay type: functional, organism-based; conditions: Human immunodeficiency virus 1, 74V

Sequence of 72 kDa type IV collagenase (P08253 whole entry): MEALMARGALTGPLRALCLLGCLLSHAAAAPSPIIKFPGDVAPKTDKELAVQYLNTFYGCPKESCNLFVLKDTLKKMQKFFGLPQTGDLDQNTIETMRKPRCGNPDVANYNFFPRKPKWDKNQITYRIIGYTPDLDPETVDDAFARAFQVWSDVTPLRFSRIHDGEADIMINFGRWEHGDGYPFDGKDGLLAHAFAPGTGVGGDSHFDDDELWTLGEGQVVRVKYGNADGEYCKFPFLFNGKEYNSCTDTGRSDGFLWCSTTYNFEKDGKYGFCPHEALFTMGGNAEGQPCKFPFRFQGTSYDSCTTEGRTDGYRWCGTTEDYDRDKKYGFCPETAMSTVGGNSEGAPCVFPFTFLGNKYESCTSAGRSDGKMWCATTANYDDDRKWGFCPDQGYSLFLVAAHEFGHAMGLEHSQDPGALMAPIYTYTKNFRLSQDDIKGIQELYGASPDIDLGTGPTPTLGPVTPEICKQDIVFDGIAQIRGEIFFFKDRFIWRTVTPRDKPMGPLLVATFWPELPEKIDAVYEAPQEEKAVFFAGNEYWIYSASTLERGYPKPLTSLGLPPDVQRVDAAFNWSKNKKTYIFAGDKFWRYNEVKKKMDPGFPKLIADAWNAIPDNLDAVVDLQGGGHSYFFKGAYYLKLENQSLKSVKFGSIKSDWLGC

SMILES | IC50 [1] | IC50 (Aminopeptidase N) | CC50 (C8166) | EC50 [2] | selectivity ratio [3] | EC50 [4] | EC50 [5] | EC50 [6]
C/C(=N\NC(=O)Cn1c(=O)c(C)nc2ccccc21)c1ccccc1 | 9.39 µM | 99.9 µM | 491 µM | 54.9 µM | 8.9 |  |  | 
COc1ccc(/C=C/C(=O)N2C[C@@H](NC(=O)c3cccnc3)C[C@H]2C(=O)NO)cc1OC |  | 117 µM | > 454 µM | 33 µM | > 13.8 |  |  | 
Cc1ccc(S(=O)(=O)N2CC3(C[C@H]2C(=O)N/N=C/c2ccccc2[N+](=O)[O-])SCCS3)cc1 | 0.24 µM | > 1000 µM | 65 µM | 32.9 µM | 1.9 |  |  | 
Cc1nc2ccccc2n(CC(=O)N/N=C/c2ccccc2)c1=O | 67 µM | 341 µM | > 625 µM | 121 µM | > 5.2 |  |  | 
COc1ccc(/C=N/NC(=O)Cn2c(=O)c(C)nc3ccccc32)c(OC)c1 | 74.9 µM | 243 µM | > 526 µM | 126 µM | > 4.2 |  |  | 
Cc1ccc(/C=N/NC(=O)Cn2c(=O)c(C)nc3ccccc32)cc1 | 38.6 µM | 307 µM | 262 µM | 51.3 µM | 5.1 |  |  | 
COc1cccc(/C=N/NC(=O)Cn2c(=O)c(C)nc3ccccc32)c1O | 7.17 µM | 80.9 µM | 115 µM | 2.79 µM | 41.3 | 6.05 µM | 2.46 µM | 3.48 µM
Cc1ccc(S(=O)(=O)N2CC3(C[C@H]2C(=O)N/N=C/c2ccc(N(C)C)cc2)SCCS3)cc1 | 5.52 µM | > 1000 µM | > 397 µM | 37.7 µM | > 10.5 | 75.6 µM | 74 µM | 56.3 µM
C/C(=N\NC(=O)Cn1c(=O)c(C)nc2ccccc21)c1cccc(Cl)c1 | 567 µM | > 1000 µM | > 543 µM | > 543 µM |  |  |  | 
C/C(=N\NC(=O)Cn1c(=O)c(C)nc2ccccc21)c1ccc(Cl)cc1 | 13.2 µM | 125 µM | > 543 µM | > 543 µM |  |  |  | 
COc1ccc(/C=N/NC(=O)Cn2c(=O)c(C)nc3ccccc32)cc1OC | 28.8 µM | 481 µM | > 526 µM | 81 µM | > 6.5 |  |  | 
COc1cc(/C=N/NC(=O)[C@@H]2CC3(CN2S(=O)(=O)c2ccc(C)cc2)SCCS3)cc(OC)c1OC | 210 µM | > 1000 µM | 327 µM | 38.5 µM | 8.5 | 65.1 µM | 38.7 µM | 96 µM
Cc1ccc(S(=O)(=O)N2CC3(C[C@H]2C(=O)N/N=C/c2ccccc2F)SCCS3)cc1 | 1.89 µM | > 1000 µM | 280 µM | 38.8 µM | 7.2 |  |  | 
C/C(=N\NC(=O)Cn1c(=O)c(C)nc2ccccc21)c1ccc([N+](=O)[O-])cc1 | 90.8 µM | 389 µM | > 528 µM | 145 µM | > 3.6 |  |  | 
Cc1cn([C@H]2C[C@H](N=[N+]=[N-])[C@@H](CO)O2)c(=O)[nH]c1=O [ZIDOVUDINE] |  |  | 4680 µM | 0.00794 µM | 589000 | 0.00436 µM |  | 0.00152 µM
Cc1ccc(/C=N/NC(=O)[C@@H]2CC3(CN2S(=O)(=O)c2ccc(C)cc2)SCCS3)cc1 | 36.8 µM | > 1000 µM | > 421 µM | 40.5 µM | > 10.4 | 39.3 µM | > 200 µM | > 200 µM
C/C(=N\NC(=O)Cn1c(=O)c(C)nc2ccccc21)c1ccccc1Cl | 112 µM | 439 µM | > 543 µM | > 543 µM |  |  |  | 
Cc1ccc(S(=O)(=O)N2CC3(C[C@H]2C(=O)NN)SCCS3)cc1 |  | > 1000 µM | > 519 µM | 239 µM | > 2.2 |  |  | 

SMILES | IC50 [1] | IC50 (Aminopeptidase N) | CC50 (C8166) | EC50 [2] | selectivity ratio [3] | EC50 [4] | EC50 [5] | EC50 [6]
Cc1nc2ccccc2n(CC(=O)N/N=C/c2ccco2)c1=O | 17.2 µM | 103 µM | > 645 µM | 301 µM | > 2.1 |  |  | 
Cc1nc2ccccc2n(CC(=O)NNC(=O)c2c(Cl)cccc2Cl)c1=O | 58.2 µM | 299 µM | 153 µM | 51.6 µM | 2.97 |  |  | 
Cc1nc2ccccc2n(CC(=O)N/N=C/c2ccc(N(C)C)cc2)c1=O | 64.3 µM | 331 µM | 355 µM | 159 µM | 2.2 |  |  | 
Cc1ccc(S(=O)(=O)N2CC3(C[C@H]2C(=O)N/N=C/c2ccccc2Br)SCCS3)cc1 | 0.41 µM | > 1000 µM | 177 µM | 28 µM | 6.3 | 33.4 µM | 18.3 µM | 30.6 µM
Cc1nc2ccccc2n(CC(=O)NNC(=O)c2ccccc2)c1=O | 187 µM |  | > 595 µM | 273 µM |  |  |  | 
Cc1nc2ccccc2n(CC(=O)NNC(=O)c2ccc(Cl)cc2)c1=O | 34.8 µM | 272 µM | > 540 µM | 169 µM | > 3.2 |  |  | 
Cc1nc2ccccc2n(CC(=O)N/N=C/Cc2ccccc2)c1=O | 36 µM | 223 µM | > 599 µM | 82.8 µM | > 7.2 |  |  | 
Cc1nc2ccccc2n(CC(=O)NN)c1=O | 98 µM | 257 µM | > 862 µM | > 862 µM |  |  |  | 
Cc1nc2ccccc2n(CC(=O)N/N=C/c2ccc(Cl)cc2)c1=O | 81 µM | 449 µM | > 565 µM | 32.2 µM | > 17.5 |  |  | 
COc1cc(/C=N/NC(=O)Cn2c(=O)c(C)nc3ccccc32)cc(OC)c1OC | 223 µM | 57.6 µM | > 488 µM | 83 µM | > 5.9 |  |  | 
CC(=O)NNC(=O)Cn1c(=O)c(C)nc2ccccc21 | > 500 µM | 328 µM | > 730 µM | > 730 µM |  |  |  | 
O=C1Nc2ccc(Cl)cc2[C@@](C#CC2CC2)(C(F)(F)F)O1 [EFAVIRENZ] |  |  |  |  |  |  | 184 µM | 
Cc1nc2ccccc2n(CC(=O)N/N=C/c2ccc([N+](=O)[O-])cc2)c1=O | 246 µM | 644 µM | > 548 µM | 42.1 µM | > 7.7 |  |  | 
COc1ccccc1/C=N/NC(=O)[C@@H]1CC2(CN1S(=O)(=O)c1ccc(C)cc1)SCCS2 | 28.5 µM | > 1000 µM | 388 µM | 51.1 µM | 7.6 | 69.6 µM | 11.4 µM | 30 µM
Cc1nc2ccccc2n(CC(=O)NNC(=O)Cc2ccccc2)c1=O | 159 µM | 333 µM | > 571 µM | 296 µM | > 1.9 |  |  | 
Cc1ccc(S(=O)(=O)N2CC3(C[C@H]2C(=O)N/N=C/c2ccccc2Cl)SCCS3)cc1 | 0.64 µM | > 1000 µM | > 404 µM | 30.3 µM | > 13.3 | 149 µM | 18.2 µM | 93.6 µM
Cc1ccc(S(=O)(=O)N2CC3(C[C@H]2C(=O)N/N=C/c2cccc([N+](=O)[O-])c2)SCCS3)cc1 | 1.05 µM | > 1000 µM | > 395 µM | 16 µM | > 24.6 | 3.89 µM | 9.94 µM | 5.07 µM

From ChEMBL document CHEMBL3774316, “Design, synthesis and anti-HIV-1 evaluation of hydrazide-based peptidomimetics as selective gelatinase inhibitors” (Bioorg Med Chem, 2016)
